{"source": "patent US20090182035A1", "about": "“USE OF A COMBINATION OF OLOPATADINE AND CILOMILAST TO TREAT NON-INFECTIOUS RHINITIS AND ALLERGIC CONJUNCTIVITIS” (Alcon Research, Ltd., priority 2007, published 2009)", "key": {"[1]": {"system": "Guinea Pig Model of Passive Conjunctival Anaphylaxis", "test": "Passive conjunctival anaphylaxis, acute phase clinical score of conjunctivitis", "format": "in vivo", "settings": "0.1% topical 20 μL drop 60 min prior to ovalbumin challenge, scored 30 min after challenge; for Clinical Score Mean: total score 0 to 10, groups of six; for Clinical Score % Inhibition: versus vehicle only, * P < 0.05", "experimental": "(§1) Drugs were prepared in standard ophthalmic suspension vehicle and allowed to vortex overnight. Cilomilast and olopatadine were prepared in the same drop by preparing separate 0.2% formulations and then combining them 50:50 to yield a 0.1% concentration of each drug. In groups where cilomilast and olopatadine were given in consecutive drops, olopatadine was applied first followed 5 minutes later by cilomilast. All topical drops were administered as a single 20 μL application. Guinea pigs (male Hartley outbred, 250-300 g) were divided into groups of six. Animals were passively sensitized to ovalbumin by a single subconjunctival injection to the right eye of 10 μL of undiluted anti-ovalbumin guinea pig serum (antiserum). One group was injected with saline only. Twenty-four hours after sensitization all groups were topically challenged with 0.5 mg of ovalbumin in saline to the right eye. Animals were pre-treated with drug or vehicle 60 minutes prior to challenge. Thirty minutes after topical challenge each animal was scored by a masked observer for clinical signs of conjunctivitis, redness/congestion, swelling, and tearing/discharge, with a total score of 0 to 10. Animals were dosed a second time with drug or vehicle 8 hours after challenge. Animals were euthanized 24 hours after challenge and conjunctivae were collected and assayed for eosinophil peroxidase (EPO) activity, an indirect marker of tissue eosinophil concentration. Briefly, tissue samples were weighed frozen, then mechanically homogenized in 50 mM HEPES buffer, pH 6.5, containing 0.5% cetyltrimethylammonium chloride and 6 mM KBr. Homogenates were freeze-thawed three times and sonicated."}, "[2]": {"system": "eosinophil peroxidase (EPO) activity", "test": "Passive conjunctival anaphylaxis, eosinophil peroxidase (EPO) activity in conjunctivae (allergic inflammation)", "format": "in vivo, guinea pig", "settings": "0.1% topical 20 μL drop 60 min prior to and 8 hours after challenge; for EPO Activity % Inhibition: conjunctivae 24 hours after challenge, versus vehicle only, * P < 0.05; for EPO Activity Mean: conjunctivae collected 24 hours after challenge", "experimental": "as §1"}}, "data": [{"smiles": "COc1ccc([C@]2(C#N)CC[C@@H](C(=O)O)CC2)cc1OC1CCCC1", "note": "[Cilomilast]", "values": [{"measurement": "Clinical Score Mean", "setting": "[1]", "result": 4.2}, {"measurement": "Clinical Score % Inhibition", "setting": "[1]", "result": 37.5, "unit": "%"}, {"measurement": "EPO Activity % Inhibition", "setting": "[2]", "result": "62.8* %"}, {"measurement": "EPO Activity Mean", "setting": "[2]", "result": 582.26, "unit": "ng EPO/mg tisue"}]}, {"smiles": "CN(C)CC/C=C1/c2ccccc2COc2ccc(CC(=O)O)cc21", "note": "[Olopatadine]", "values": [{"measurement": "Clinical Score Mean", "setting": "[1]", "result": 2.2}, {"measurement": "Clinical Score % Inhibition", "setting": "[1]", "result": "67.5* %"}, {"measurement": "EPO Activity % Inhibition", "setting": "[2]", "result": 15.8, "unit": "%"}, {"measurement": "EPO Activity Mean", "setting": "[2]", "result": 1320.23, "unit": "ng EPO/mg tisue"}]}]}
